Data from US11040987B2 (TenNor Therapeutics Limited, priority 2019, dated 2021).
Values after ≈ are worked out from the molar mass of the structure shown. Like-named read-outs stand apart in the source and are kept apart here.

Tests used:
Pseudomonas aeruginosa = conditions: including carbapenem-resistant strains; cited from earlier work
Acinetobacter baumannii = conditions: including carbapenem-resistant strains; cited from earlier work
A.b TNP 41704 = assay: MIC against A. baumannii clinical isolates, alone and in combination with antibiotics; type: cell-based; conditions: for MIC: Acinetobacter baumannii
AmpC_AB = AmpC_AB (Acinetobacter baumannii, UniProt Q6DRA1); assay: β-lactamase inhibition, spectrophotometric assay of nitrocefin hydrolysis; type: biochemical
Description: (§1) Hydrolytic inactivation of the β-lactam antibiotics by β-lactamases is the most widespread drug resistant mechanism and the most challenge clinically among Gram-negative bacterial pathogens. Based on the amino acid sequences, the β-lactamases are grouped into four classes (Ambler classification), of which A, C and D are serine hydrolases and B encompasses metallo-β-lactamases. The IC50 of selected derivatives disclosed herein (identified with reference to example number) plus six reference β-lactam or β-lactamase inhibitors were determined against 7 representative β-lactamases of various classes in a standard spectrophotometric assay of nitrocefin hydrolysis. The assay is performed in 384-well plate. The seven recombinant β-lactamases AmpC_AB (from A. baumannii), AmpC_PA (from P. aeruginosa), KPC-2, NDM-1, IMP-1, VIM-1 and OXA 24/40) are expressed and purified. The reaction buffer for class A, C and D enzymes is 100 mM Na2HPO4—KH2PO4 (pH 7.1) plus 0.005% Tween-20, and for class B enzymes 10 μM ZnSO4 is added. […] The 50 μL of reaction solution composed of 2 pM of β-lactamase, 200 μM of nitrocefin and series of 3-fold dilutions of test or control compounds are added by Cybio SELMA system into 384-plate and incubated in dark at 25° C. for 2 hours. The OD490 is read in MC SpectraMax Plus384 plate reader.

NDM-1 = target: T1, NDM-1 (Klebsiella pneumoniae, UniProt C7C422); assay: as above; type: biochemical
T1 construct: made in house
T1 sequence (C7C422 29-270, looked up, species assumed): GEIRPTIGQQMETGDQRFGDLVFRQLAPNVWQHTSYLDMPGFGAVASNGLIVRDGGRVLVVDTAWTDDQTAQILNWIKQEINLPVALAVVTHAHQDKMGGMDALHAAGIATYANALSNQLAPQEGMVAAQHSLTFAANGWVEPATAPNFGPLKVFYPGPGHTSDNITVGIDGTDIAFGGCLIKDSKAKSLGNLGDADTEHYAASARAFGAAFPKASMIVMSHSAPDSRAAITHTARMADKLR
Description: as §1

IMP-1 = target: T2, IMP-1 (Serratia marcescens, UniProt P52699); assay: as above; type: biochemical
T2 construct: made in house
T2 sequence (P52699 19-246, looked up, species assumed): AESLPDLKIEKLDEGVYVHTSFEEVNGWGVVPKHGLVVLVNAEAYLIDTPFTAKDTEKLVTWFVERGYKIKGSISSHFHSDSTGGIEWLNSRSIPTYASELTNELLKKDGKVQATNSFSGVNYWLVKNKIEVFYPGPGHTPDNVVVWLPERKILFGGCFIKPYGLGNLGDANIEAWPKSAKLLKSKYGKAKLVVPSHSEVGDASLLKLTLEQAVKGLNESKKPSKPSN
Description: as §1

KPC-2 = target: T3, KPC-2 (Klebsiella pneumoniae, UniProt Q9F663); assay: as above; type: biochemical
T3 construct: made in house
T3 sequence (Q9F663 25-293, looked up, species assumed): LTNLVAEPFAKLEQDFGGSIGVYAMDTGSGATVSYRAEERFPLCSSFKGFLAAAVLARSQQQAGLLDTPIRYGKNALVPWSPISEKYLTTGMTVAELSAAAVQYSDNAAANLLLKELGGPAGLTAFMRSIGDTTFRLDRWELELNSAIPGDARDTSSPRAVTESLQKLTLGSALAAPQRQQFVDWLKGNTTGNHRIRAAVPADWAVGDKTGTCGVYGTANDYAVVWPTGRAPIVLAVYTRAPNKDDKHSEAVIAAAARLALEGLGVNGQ
Description: as §1

VIM-1 = target: T4, VIM-1 (Pseudomonas aeruginosa, UniProt A0A0F7KYQ8); assay: as above; type: biochemical
T4 construct: made in house
Description: as §1

OXA 24/40 = target: T5, OXA 24/40 (Acinetobacter baumannii, UniProt Q8RLA6); assay: as above; type: biochemical
T5 construct: made in house
T5 sequence (Q8RLA6 22-275): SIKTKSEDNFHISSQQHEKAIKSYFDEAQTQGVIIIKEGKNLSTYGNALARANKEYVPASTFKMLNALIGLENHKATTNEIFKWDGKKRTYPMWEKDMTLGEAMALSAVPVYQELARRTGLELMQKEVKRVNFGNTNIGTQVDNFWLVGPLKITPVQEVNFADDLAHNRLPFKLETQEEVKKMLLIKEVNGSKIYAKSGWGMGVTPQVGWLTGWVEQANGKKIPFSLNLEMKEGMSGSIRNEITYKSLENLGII
Description: as §1

AmpC_PA = target: T6, AmpC_PA (Pseudomonas aeruginosa, UniProt P24735); assay: as above; type: biochemical, P. aeruginosa
T6 construct: made in house
T6 sequence (P24735 27-397): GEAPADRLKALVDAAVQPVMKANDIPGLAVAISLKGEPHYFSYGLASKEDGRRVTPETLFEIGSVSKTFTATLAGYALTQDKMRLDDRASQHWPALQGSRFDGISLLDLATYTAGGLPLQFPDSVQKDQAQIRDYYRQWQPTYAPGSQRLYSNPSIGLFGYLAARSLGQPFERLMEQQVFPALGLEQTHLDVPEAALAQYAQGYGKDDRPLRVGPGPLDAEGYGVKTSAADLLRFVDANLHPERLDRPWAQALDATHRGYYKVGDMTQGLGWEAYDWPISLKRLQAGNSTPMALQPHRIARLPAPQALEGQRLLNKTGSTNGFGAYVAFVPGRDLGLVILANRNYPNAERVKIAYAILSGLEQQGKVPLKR
Description: as §1

A.b TNP 41708 = assay: MIC against A. baumannii clinical isolates, alone and in combination with antibiotics; type: cell-based; conditions: for MIC: Acinetobacter baumannii, TNP41708, read-out: MIC A.b TNP 41708
Method in brief: (§2)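 Inoculum set at […]. MICs come from broth microdilution run according to CLSI, minor modifications applied.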

A.b TNP 41709 = assay: as above; type: cell-based; conditions: for MIC: Acinetobacter baumannii
[1] = test system: Escherichia coli ATCC 25922; assay: MIC determination, broth microdilution, ESKAPE panel; type: cell-based
Method in brief: as §2

S. aureus ATCC 29213 = assay: as above; type: cell-based; conditions: Staphylococcus aureus
Method in brief: as §2

A. baumannii ATCC 19606 = assay: as above; type: cell-based; conditions: Acinetobacter baumannii
Method in brief: as §2

E. faecium ATCC 700221 = assay: as above; type: cell-based; conditions: Enterococcus faecium
Method in brief: as §2

K. pneumoniae ATCC 43816 = assay: as above; type: cell-based; conditions: Klebsiella pneumoniae
Method in brief: as §2

P. aeruginosa ATCC 27853 = assay: as above; type: cell-based; conditions: Pseudomonas aeruginosa
Method in brief: as §2

[2] = TNP41704, Compounds alone, read-out: MIC A.b TNP 41704
[3] = Class C β-lactamase, 200 μM nitrocefin, 25° C., 2 hours, read-out: IC50 AmpC_AB
[4] = class B β-lactamase, 10 μM ZnSO4, 200 μM nitrocefin, 25° C., 2 hours, read-out: IC50 NDM-1
[5] = class B β-lactamase, 10 μM ZnSO4, 200 μM nitrocefin, 25° C., 2 hours, read-out: IC50 IMP-1
[6] = class A β-lactamase, 200 μM nitrocefin, 25° C., 2 hours, read-out: IC50 KPC-2
[7] = class B β-lactamase, 10 μM ZnSO4, 200 μM nitrocefin, 25° C., 2 hours, read-out: IC50 VIM-1
[8] = TNP41709, Compounds alone, read-out: MIC A.b TNP 41709
[9] = ATCC25922, iron-depleted cation-adjusted Mueller-Hinton broth, 2,2-dipyridyl 160 μM, 37° C., 18-20 hours, read-out: MIC E. coli ATCC 25922
[10] = ATCC29213, iron-depleted cation-adjusted Mueller-Hinton broth, 2,2-dipyridyl 160 μM, 37° C., 18-20 hours, read-out: MIC S. aureus ATCC 29213
[11] = ATCC19606, iron-depleted cation-adjusted Mueller-Hinton broth, 2,2-dipyridyl 160 μM, 37° C., 18-20 hours, read-out: MIC A. baumannii ATCC 19606
[12] = ATCC700221, iron-depleted cation-adjusted Mueller-Hinton broth, 2,2-dipyridyl 160 μM, 37° C., 18-20 hours, read-out: MIC E. faecium ATCC 700221
[13] = ATCC43816, iron-depleted cation-adjusted Mueller-Hinton broth, 2,2-dipyridyl 160 μM, 37° C., 18-20 hours, read-out: MIC K. pneumoniae ATCC 43816
[14] = ATCC27853, iron-depleted cation-adjusted Mueller-Hinton broth, 2,2-dipyridyl 160 μM, 37° C., 18-20 hours, read-out: MIC P. aeruginosa ATCC 27853

Structure (SMILES)	MIC (A.b TNP 41704; [2]) [µg/mL]	MIC A.b TNP 41704 (A.b TNP 41704; Compounds + meropenem (1:1)) [µg/mL]	MIC A.b TNP 41704 (A.b TNP 41704; Compounds + sulbactam (1:1)) [µg/mL]	IC50 (AmpC_AB; [3]) [µM]	IC50 (NDM-1; [4]) [µM]	IC50 (IMP-1; [5]) [µM]	IC50 (KPC-2; [6]) [µM]	IC50 (VIM-1; [7]) [µM]	IC50 (OXA 24/40) [µM]	IC50 (AmpC_PA) [µM]	MIC (A.b TNP 41708) [µg/mL]	MIC A.b TNP 41708 (A.b TNP 41708; Compounds + meropenem (1:1)) [µg/mL]	MIC A.b TNP 41708 (A.b TNP 41708; Compounds + sulbactam (1:1)) [µg/mL]	MIC (A.b TNP 41709; [8]) [µg/mL]	MIC A.b TNP 41709 (A.b TNP 41709; Compounds + meropenem (1:1)) [µg/mL]	MIC A.b TNP 41709 (A.b TNP 41709; Compounds + sulbactam (1:1)) [µg/mL]	MIC [1, 9] [µg/mL]	MIC (S. aureus ATCC 29213; [10]) [µg/mL]	MIC (A. baumannii ATCC 19606; [11]) [µg/mL]	MIC (E. faecium ATCC 700221; [12]) [µg/mL]	other results
CC(C)(O/N=C(\C(=O)N[C@@H]1C(=O)N2C(C(=O)[O-])=C(C[N+]3(CCNC(=O)c4ccc(O)c(O)c4Cl)CCCC3)CS[C@H]12)c1csc(N)n1)C(=O)O [Cefiderocol]																					antibacterial activity against Pseudomonas aeruginosa (Pseudomonas aeruginosa): potent antibacterial activity; antibacterial activity against Acinetobacter baumannii (Acinetobacter baumannii): potent antibacterial activity
C[C@]1(/C=N/NC(=O)CNC(=O)c2ccc(O)c(O)c2)[C@H](C(=O)O)N2C(=O)C[C@H]2S1(=O)=O [Example 64, (2S,3R,5R)-3-((E)-(2-(2-(3,4-dihydroxybenzamido)acetyl)hydrazono)methyl)-3-methyl-7-oxo-4-thia-1-azabicyclo[3.2.0]heptane-2-carboxylic acid 4,4-dioxide]	> 128	2	4	0.474	> 200	> 200	> 200	> 200	5.77	0.641	> 128	4	8	> 128	2	4	> 128	64 (≈ 141 µM)	8 (≈ 17.6 µM)	> 128	MIC (K. pneumoniae ATCC 43816; [13]): 128 µg/mL (≈ 282 µM); MIC (P. aeruginosa ATCC 27853; [14]): > 128 µg/mL
C[C@]1(COC(=O)NNC(=O)c2ccc(O)c(O)c2Cl)[C@H](C(=O)O)N2C(=O)C[C@H]2S1(=O)=O [Example 70, (2S,3R,5R)-3-(((2-(2-chloro-3,4-dihydroxybenzoyl)hydrazinecarbonyl)oxy)methyl)-3-methyl-7-oxo-4-thia-1-azabicyclo[3.2.0]heptane-2-carboxylic acid 4,4-dioxide]	8	8	4	7.18	> 200	> 200	140	> 200	29.6	9.14	16	8	8	8	4	4	> 128	> 128	1 (≈ 2.09 µM)	> 128	activity against KPC-2 of class A (in words) (KPC-2; text summary of Table 4): weak activity; MIC (K. pneumoniae ATCC 43816; [13]): > 128 µg/mL; MIC (P. aeruginosa ATCC 27853; [14]): > 128 µg/mL
CC1(C)[C@H](C(=O)O)N2C(=O)C[C@H]2S1(=O)=O [Sulbactam, reference compound]									> 200	10.3	32										MIC (A.b TNP 41704; TNP41704, read-out: MIC A.b TNP 41704): 8 µg/mL; IC50 (AmpC_AB): 10.3 µM; IC50 (NDM-1): > 200 µM; IC50 (IMP-1): > 200 µM; IC50 (KPC-2): 53.4 µM; IC50 (VIM-1): > 200 µM; MIC (A.b TNP 41709; TNP41709, read-out: MIC A.b TNP 41709): 32 µg/mL; MIC ([1]; ATCC25922, read-out: MIC E. coli ATCC 25922): 32 µg/mL (≈ 137 µM); MIC (S. aureus ATCC 29213; ATCC29213, read-out: MIC S. aureus ATCC 29213): > 128 µg/mL; MIC (A. baumannii ATCC 19606; ATCC19606, read-out: MIC A. baumannii ATCC 19606): 0.5 µg/mL (≈ 2.14 µM); MIC (E. faecium ATCC 700221; ATCC700221, read-out: MIC E. faecium ATCC 700221): > 128 µg/mL; MIC (K. pneumoniae ATCC 43816; ATCC43816, read-out: MIC K. pneumoniae ATCC 43816): 64 µg/mL (≈ 274 µM); MIC (P. aeruginosa ATCC 27853; ATCC27853, read-out: MIC P. aeruginosa ATCC 27853): > 128 µg/mL
